# Data reported in patent publication US12491185B2, “Inhibitors of mPTP” (NRG Therapeutics Ltd, priority 2023, dated 2025).
# Tested on: mPTP
# Assay: mPTP activity (Ca2+ retention) assay in isolated rat liver mitochondria
# Assay type: biochemical
# Conditions: examples tested by different contract research organisations, believed comparable
# From the text: Pharmacological inhibition or modulation of the mPTP can be measured in well characterised ‘Ca^2+ retention’ assays performed in isolated mitochondria. In vitro, isolated mitochondria rapidly sequester exogenous Ca^2+ until the intramitochondrial Ca^2+ concentration reaches the threshold for mPTP activation. Once the pore is activated, mitochondrial integrity is compromised and the stored Ca^2+ is released. The distribution of Ca^2+ between extra- and intra-mitochondrial compartments can be measured in real time with the use of membrane-impermeant Ca^2+ sensitive fluorescent dyes. Depending on the configuration of the assay, inhibition or modulation of the mPTP either delays the opening of the pore or increases the concentration of Ca^2+ required to induce mPTP opening.
# MPTP activity was measured in mitochondria freshly isolated from female Sprague Dawley (250 to 300 gram) rat livers using the following method. Cervical dislocation was performed on the rat. The liver was then perfused in-situ with −40 ml cold Dulbecco's Phosphate Buffered Saline (DPBS) prior to dissection and transferred into 30 ml Isolation Buffer (250 mM Sucrose, 10 mM KCl, 1 mM EGTA, 1 mM EDTA, 25 mM HEPES, adjusted to pH 7.5 with 1M NaOH). Each lobe of the liver was then removed from the buffer, minced using tweezers and a scalpel into −5 mm pieces then transferred into a 50 ml Potterton dounce homogenization tube on ice containing 30 ml ice-cold centrifugation buffer (300 mM Trehalose, 25 mM HEPES, 1 mM EGTA, 1 mM EDTA, 10 mM KCl, adjusted to pH 7.5 with 1M NaOH and supplemented with 0.1% bovine serum albumin (BSA) and complete protease inhibitor cocktail (one tablet of inhibitor per 50 mls of buffer). Homogenisation was carried out using a teflon pestle at 1800 rpm. The slurry was centrifuged at 800 g for 10 min at 4° C., then the supernatant centrifuged at 10,000 g for 10 min. The pellet was washed once with FLIPR assay buffer (75 mM Mannitol, 25 mM Sucrose, 5 mM Potassium Phosphate Monobasic, 20 mM Tris base, 100 mM KCl, 0.1% BSA adjusted to pH 7.4 with 5M HCl) centrifuged again, then resuspended in FLIPR assay buffer to a concentration of 8.8 mg/ml protein.
# Tested compounds (10 mM stock in DMSO) were serially diluted in DMSO in half log steps to generate 10 test concentrations (final concentrations in assay 30 μM to 1 nM). An intermediate dilution of 5 μl DMSO samples into 247 μl FLIPR assay buffer was carried out prior to transfer of 5 μl into duplicate wells of a 384 well polypropylene assay plate. Control wells were 0.5% (v/v) DMSO and 5 μM cyclosporin A.
# A stock mitochondria/Fluo5N assay solution was prepared in 5.6 ml FLIPR assay buffer (at RT) supplemented with succinate disodium salt (10 mM), rotenone (1 μM), Fluo5N pentapotassium salt (2 μM) and 1 ml mitochondria suspension, then transferred (15 μl) into the assay plate containing test compounds and incubated for 10 min at RT. Assay plates were processed for fluorescence detection on either a FLIPR Tetra (Molecular Devices) or CLARIOstar (BMG) plate reader. For kinetic fluorescence detection on the FLIPR, dye fluorescence was measured every 3 sec for a total of 10 min. After 12 sec, a 2.5 μl bolus of CaCl2 (75 μM) was added from a source plate containing 675 μM CaCl2 in FLIPR assay buffer. Alternatively, the 2.5 μl addition of CaCl2 was performed using a Viaflow 384, plates were incubated at RT for 10 min, and dye fluorescence measured after 10 min on the CLARIOstar plate reader. pIC50 values for tested compounds were calculated using the fluorescence value collected at the 10 min timepoint on either plate reader, with % inhibition calculated using the DMSO control and cyclosporin A values as 0 and 100% respectively.
row,SMILES,mPTP Rat liver pIC50
1,O=C(NCC1(Cc2cc(F)cc(F)c2)CCC1)c1ccc(=O)[nH]n1 [Example 176],4.8
2,"O=C(NCC1(Cc2ccc(F)c(F)c2)CCC1)c1noc(=O)[nH]1 [Example 202, N-((1-(3,4-difluorobenzyl)cyclobutyl)methyl)-5-oxo-4,5-dihydro-1,2,4-oxadiazole-3-carboxamide]",5.61
3,"Cc1cc(F)ccc1CC1(CNC(=O)c2nn(C)c(=O)[nH]2)CCC1 [Example 86, N-((1-(4-Fluoro-2-methylbenzyl)cyclobutyl)methyl)-1-methyl-5-oxo-4,5-dihydro-1H-1,2,4-triazole-3-carboxamide]",5.86
4,"Cn1nc(C(=O)NCC2(Cc3ccc(Cl)cc3F)CCC2)[nH]c1=O [Example 90, N-((1-(4-Chloro-2-fluorobenzyl)cyclobutyl)methyl)-1-methyl-5-oxo-4,5-dihydro-1H-1,2,4-triazole-3-carboxamide]",5.61
5,"CC(C)(CNC(=O)c1cc(C(F)(F)F)n[nH]1)Cc1ccccc1 [Example 69, N-(2,2-dimethyl-3-phenylpropyl)-3-(trifluoromethyl)-1H-pyrazole-5-carboxamide]",<4.52
6,CC[C@H](CNC(=O)c1nn(C)c(=O)[nH]1)Cc1c(F)cc(F)cc1F [Example 125],6.55
7,"Cc1cccc(C)c1CC1(CNC(=O)c2nn(C)c(=O)[nH]2)CCC1 [Example 108, N-((1-(2,6-dimethylbenzyl)cyclobutyl)methyl)-1-methyl-5-oxo-4,5-dihydro-1H-1,2,4-triazole-3-carboxamide]",<4.57
8,Cn1nc(C(=O)NCC2(Cc3ccc(F)cc3F)CCC2)nc1CO [Example 208],<4.57
9,Cn1nc(C(=O)NCC2(Cc3ccc(F)cc3F)CC23CC3)[nH]c1=O (stereo not shown) [Example 123],7.04
10,O=C(NC[C@H](Cc1ccc(F)c(F)c1)C1CC1)c1cncc(=O)[nH]1 [Example 151],5.88
11,O=C(NCC1(Cc2ccc(F)cc2F)CCC1)c1cnn[nH]1 [Example 170],5.65
12,O=C(NC[C@H](Cc1ccc(F)cc1F)C1CC1)c1cc(=O)[nH]o1 [Example 136],6.39
13,CSc1cccc(CC2(CNC(=O)c3nn(C)c(=O)[nH]3)CCC2)c1 [Example 182],5.02
14,O=C(NCC1(Cc2ccc(F)cc2F)CCOCC1)c1cc(=O)[nH]o1 [Example 184],6.14
15,O=C(NCC1(Cc2ccc(F)cc2F)CC12CC2)c1nccc(=O)[nH]1 (stereo not shown) [Example 186],6.58
16,CC[C@H](CNC(=O)c1nccc(=O)[nH]1)Cc1ccc(F)cc1F [Example 163],5.38
17,"O=C(NCC1(Cc2ccc(F)cc2F)CCC1)c1c[nH]c(=O)cn1 [Example 138, N-((1-(2,4-difluorobenzyl)cyclobutyl)methyl)-5-oxo-4,5-dihydropyrazine-2-carboxamide]",<4.57
18,"Cn1nc(C(=O)NCC(C)(C)Cc2ccccc2)ccc1=O [Example 67, N-(2,2-dimethyl-3-phenylpropyl)-1-methyl-6-oxo-1,6-dihydro-pyridazine-3-carboxamide]",<4.52
19,"Cn1nc(C(=O)NCC(Cc2ccc(F)cc2F)C2CC2)[nH]c1=O (stereo not shown) [Example 93, N-(2-Cyclopropyl-3-(2,4-difluorophenyl)propyl)-1-methyl-5-oxo-4,5-dihydro-1H-1,2,4-triazole-3-carboxamide]",6.58
20,"Cn1nc(C(=O)NCC2(Cc3ccc(F)cc3C(F)(F)F)CCC2)[nH]c1=O [Example 87, N-((1-(4-Fluoro-2-(trifluoromethyl)benzyl)cyclobutyl)methyl)-1-methyl-5-oxo-4,5-dihydro-1H-1,2,4-triazole-3-carboxamide]",5.57
21,Cn1nc(C(=O)NC[C@H](Cc2ccc(F)c(F)c2)C2CC2)[nH]c1=S [Example 119],5.9
22,"O=C(NCC1(Cc2ccccc2)CCC1)c1nc2ccccc2c(=O)[nH]1 [Example 66, N-((1-benzylcyclobutyl)methyl)-4-oxo-3,4-dihydro-quinazoline-2-carboxamide]",<4.52

row,SMILES,mPTP Rat liver pIC50
1,"Cn1c(=O)[nH]cc(C(=O)NCC(C)(C)Cc2ccccc2)c1=O [Example 68, N-(2,2-dimethyl-3-phenylpropyl)-3-methyl-2,4-dioxo-1,2,3,4-tetrahydro-pyrimidine-5-carboxamide]",<4.52
2,O=C(NCC1(Cc2ccc(F)cc2F)CCC1)c1n[nH]c(=O)o1 [Example 211],6.05
3,O=C(NCC1(Cc2ccc(F)cc2F)CCOCC1)c1nccc(=O)[nH]1 [Example 185],6.34
4,O=C(NCC1(Cc2ccc(F)cc2F)CCC1)c1cnc(=O)[nH]c1 [Example 145],<4.57
5,"Cn1nc(C(=O)NCC(CO)Cc2ccccc2)[nH]c1=O (stereo not shown) [Example 70, N-(2-benzyl-3-hydroxypropyl)-1-methyl-5-oxo-4,5-dihydro-1H-1,2,4-triazole-3-carboxamide]",4.85
6,O=C(NC[C@H](Cc1c(F)cccc1F)C1CC1)c1nccc(=O)[nH]1 [Example 189],5.26
7,"CN(CC(C)(C)Cc1ccccc1)C(=O)c1nn(C)c(=O)[nH]1 [Example 72, N-(2,2-dimethyl-3-phenylpropyl)-N,1-dimethyl-5-oxo-4,5-dihydro-1H-1,2,4-triazole-3-carboxamide]",4.67
8,"Cn1nc(C(=O)NCC2(Cc3ccc(F)cc3F)CCC2)n(C)c1=O [Example 107, N-((1-(2,4-difluorobenzyl)cyclobutyl)methyl)-1,4-dimethyl-5-oxo-4,5-dihydro-1H-1,2,4-triazole-3-carboxamide]",<4.57
9,COCc1ccccc1CC1(CNC(=O)c2nn(C)c(=O)[nH]2)CCC1 [Example 178],<4.57
10,O=C(NCC1(Cc2ccc(F)c(F)c2)CCC1)c1cncc(=O)[nH]1 [Example 139],5.73
11,O=C(NC[C@H](Cc1cc(F)ccc1F)C1CC1)c1cncc(=O)[nH]1 [Example 158],5.33
12,O=C(NCC1(Cc2cc(F)cc(F)c2)CCC1)c1cncc(=O)[nH]1 [Example 165],<4.57
13,O=C(NCC1(Cc2ccc(F)cc2F)CCC1)c1nnc[nH]1 [Example 180],5.14
14,O=C(NC[C@H](Cc1cc(F)ccc1F)C1CC1)c1ccc(=O)[nH]n1 [Example 155],5.33
15,Cn1nc(C(=O)NCC2CCc3ccccc3C2)[nH]c1=O (stereo not shown) [Example 60],5.10
16,"CCC(Cc1ccc(F)cc1F)CN(C)C(=O)c1nn(C)c(=O)[nH]1 (stereo not shown) [Example 179, N-(2-(2,4-difluorobenzyl)butyl)-N,1-dimethyl-5-oxo-4,5-dihydro-1H-1,2,4-triazole-3-carboxamide]",<4.57
17,O=C(NC[C@H](Cc1ccc(F)cc1F)C1CC1)c1coc(=O)[nH]1 [Example 137],5.58
18,"CC(C)[C@@H](CNC(=O)c1nn(C)c(=O)[nH]1)Cc1ccccc1 (single isomer, unassigned) [Example 46A]",4.71
19,CCC(Cc1ccc(F)cc1F)CN(C)C(=O)c1nccc(=O)[nH]1 (stereo not shown) [Example 169],<4.57
20,"Cn1c(C(=O)NCC2(Cc3ccc(F)cc3F)CCC2)n[nH]c1=O [Example 173, N-((1-(2,4-difluorobenzyl)cyclobutyl)methyl)-4-methyl-5-oxo-4,5-dihydro-1H-1,2,4-triazole-3-carboxamide]",<4.57
21,"COc1cccc(CC2(CNC(=O)c3nn(C)c(=O)[nH]3)CCC2)c1 [Example 75, N-((1-(3-Methoxybenzyl)cyclobutyl)methyl)-1-methyl-5-oxo-4,5-dihydro-1H-1,2,4-triazole-3-carboxamide]",5.77
